What was measured:
[1] = molecular target: T1, metabotropic glutamate receptors mGluR2 (Rattus norvegicus, UniProt P31421); assay: Effects of test compounds on cAMP accumulation (antagonism of glutamic acid suppression of Forskolin-stimulated cAMP) in CHO cells expressing mGluR2; assay type: cell-based; conditions: CHO cells stably expressing mGluR2; 50% inhibition of suppression by 30 μM glutamic acid of cAMP increase by 10^-5 M Forskolin; cAMP EIA kit
T1 construct: expressed in transfected cells
Procedure: Experimental Example (Effects of Test Compounds on cAMP Accumulation)
CHO cells stably expressing metabotropic glutamate receptors mGluR2 were seeded in a 96-well plate in the ratio of 1.26×10^4 cells/well/0.32 cm^2/150 μl in Dalbeco-modified Eagle medium [1% proline, 50 units/ml penicillin, 50 μg/ml streptomycin, 2 mM L-glutamine (added when used)] containing 10% dialyzed fetal bovine serum, and were cultured for 2 days at 37° C. under an atmosphere of 5% CO2. Subsequently, the medium was replaced with an L-glutamine free medium. Four hours later, the supernatant liquid was aspirated. […] A study was carried out for the antagonistic effects of the test compounds on the Forskolin stimulation cAMP accumulation quantity suppression [for control, the conditions were set with no addition of the compounds (Tanabe et al., Neuron, 8, 169-179 (1992))]. The reactions were quenched by adding 100 μl of ice-cooled ethanol, the entire quantity of the supernatant liquid was collected in a separate plate, and was subsequently dried up at normal temperature with an evaporator, followed by preservation at −20° C. In the dried-up samples, the quantity of cAMP was measured using a cAMP EIA kit (from the Amasham company). The control value was subtracted from each cAMP quantity. […]

T1 sequence (P31421 19-872): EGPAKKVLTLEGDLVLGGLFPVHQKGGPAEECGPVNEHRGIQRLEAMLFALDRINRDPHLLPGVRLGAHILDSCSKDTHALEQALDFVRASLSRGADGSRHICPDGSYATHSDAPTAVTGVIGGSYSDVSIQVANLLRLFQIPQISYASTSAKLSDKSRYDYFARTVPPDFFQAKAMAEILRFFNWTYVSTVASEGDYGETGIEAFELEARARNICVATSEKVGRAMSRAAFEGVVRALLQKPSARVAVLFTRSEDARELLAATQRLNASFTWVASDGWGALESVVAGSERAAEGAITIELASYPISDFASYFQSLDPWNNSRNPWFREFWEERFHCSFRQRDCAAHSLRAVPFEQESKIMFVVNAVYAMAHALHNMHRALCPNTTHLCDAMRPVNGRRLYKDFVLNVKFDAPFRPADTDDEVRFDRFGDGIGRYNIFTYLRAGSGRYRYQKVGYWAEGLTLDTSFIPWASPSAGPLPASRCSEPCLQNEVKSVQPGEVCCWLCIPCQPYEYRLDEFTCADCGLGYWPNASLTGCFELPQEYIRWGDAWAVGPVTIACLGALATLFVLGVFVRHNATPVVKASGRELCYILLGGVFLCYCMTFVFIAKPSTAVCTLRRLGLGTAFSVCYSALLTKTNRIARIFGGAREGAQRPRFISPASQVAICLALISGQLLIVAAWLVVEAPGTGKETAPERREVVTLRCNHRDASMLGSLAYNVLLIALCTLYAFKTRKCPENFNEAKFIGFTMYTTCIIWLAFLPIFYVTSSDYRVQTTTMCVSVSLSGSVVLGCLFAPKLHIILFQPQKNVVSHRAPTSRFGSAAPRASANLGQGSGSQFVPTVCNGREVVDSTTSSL

Row | melting point | IC50 [1] [nM] | SMILES
1 | > 172 °C (dec.) | 476 | N[C@@]1(C(=O)O)[C@H](O)C[C@@H]2[C@H]1[C@@]2(F)C(=O)O [Example 8, (1R,2R,3R,5R,6R)-2-amino-6-fluoro-3-hydroxy-bicyclo[3.1.0]hexane-2,6-dicarboxylic acid]
2 | > 174 °C (dec.) | – | N[C@@]1(C(=O)O)C=C[C@@H]2[C@H]1[C@@]2(F)C(=O)O [Example 7, (1R,2S,5R,6R)-2-amino-6-fluoro-bicyclo[3.1.0]hex-3-ene-2,6-dicarboxylic acid]

Source: patent US6770676B2, “Dicarboxylic acid derivatives” (Taisho Pharmaceutical Co., Ltd., priority 2000, dated 2004)
